From patent US6960590B2, “Orally active salts with tyrosine kinase activity” (Merck & Co. Inc., priority 2000, dated 2005)
Where a name gives a salt, the structure may show the parent alone.

Key:
Type in all cases: physicochemical
[1] = Measurement of salt solubility: salts of 1-11 formed in situ and suspended in water, HPLC (UV-Vis); settings: for Solubility: free base plus 1.05-1.1 molar equivalence of acid, suspended in water for several days, method overestimates the solubility; for pH: pH in equilibrium with the solid phase of the salt suspended in water, most likely lower than pH of the salt in water
Description: The solid free base was treated with a concentrated solution of the appropriate acid (1.05-1.1 molar equivalence) and suspended in water for several days. The pH and concentration of the compound in equilibrium with the solid phase was measured by HPLC (UV-Vis detection). This method overestimates the solubility of the salt due to the 5-10% excess of the acid that is added in the preparation of the salts. For the same reason, the pH's that are obtained are most likely lower than the pH of the salt in water.

[2] = Solubility of salts of 4-9 prepared in situ (pH and concentration by HPLC); settings: for Solubility: free base plus 1.05 mole equivalents of acid, suspended in 100 μL of water, rotated overnight, centrifuged; for pH: pH of the liquid residue of the aqueous suspension
Excerpt: Two forms of the mesylate salt were made: Salt 4-9A above and Salt 4-9B below.

[3] = Solubility of free base 1-11 at room temperature in 0.05M aqueous buffers, water and organic solvents (HPLC)
Description: The solubility of 1-11 at room temperature was determined in 0.05M aqueous buffers, water and several organic solvents.

[4] = Solubility of isolated crystalline salts of 1-11 in water and organic solvents; settings: for solubility at 7 days: thermodynamic from solid, RT for 7 days
Description: The amorphous mesylate salt was recrystallized from 50:50 Ethanol:THF to give a crystalline powder (Salt 1-11A). The X-ray powder diffraction pattern (XRPD) of the recrystallized mesylate salt 1-11A (FIG. 2) is indicative of crystalline material with multiple diffraction peaks between 5° and 30° 2-theta.
A second batch of crystalline mesylate salt (Salt 1-11B) was obtained by the following procdeure. To a stirred suspension of 1-11 (4.026 g, 9.22 mmol) in MeOH was slowly added at room temperature (RT) one equivalent of a 0.3M solution of methanesulfonic acid (30.73 mL). After all the solid had dissolved, the mixture was filtered into a flask and concentrated under reduced pressure while cooled to about 10° C. The resulting solid was suspended with 200 mL of ethylacetate, filtered, and dried to afford the mesylate salt. […] This crystalline form is different by XRPD than the one recrystallized from the amorphous salt in EtOH/THF (Salt 1-11A).
HCl salt 1-11D is also crystalline as witnessed by the X-ray powder diffraction pattern of the material, having multiple diffraction peaks between 5° and 30° 2-theta. […] (rate of 10° C./min). The compound is birefringent under plane polarized light. It is needle-shaped particles of approximately 5-25 micron. The solubility of salt 1-11D was measured in water and various organic solvents. Table VI below summarizes the solubility of the 1-11D suspended in various solvents for 7 days at room temperature.

CS(=O)(=O)N1CCN(Cc2ccc3[nH]c(-c4cc5ccccc5[nH]c4=O)cc3c2)CC1 [Acetate salt of 1-11, 3-[5-(4-Methanesulfonyl-piperazin-1-ylmethyl)-1H-indol-2-yl]-1H-quinolin-2-one]
Solubility [1]: 91 µg/mL
pH [1]: 3.3

CS(=O)(=O)N1CCN(Cc2ccc3[nH]c(-c4cc5ccccc5[nH]c4=O)cc3c2)CC1 [Besylate salt of 1-11, 3-[5-(4-Methanesulfonyl-piperazin-1-ylmethyl)-1H-indol-2-yl]-1H-quinolin-2-one]
Solubility [1]: 3.8 µg/mL
pH [1]: 2.4

CS(=O)(=O)N1CCN(Cc2ccc3[nH]c(-c4cc5ccccc5[nH]c4=O)cc3c2)CC1 [Citrate salt of 1-11, 3-[5-(4-Methanesulfonyl-piperazin-1-ylmethyl)-1H-indol-2-yl]-1H-quinolin-2-one]
Solubility [1]: 110 µg/mL

COCCN(C)CCOc1ccc2[nH]c(-c3cc4ccccc4[nH]c3=O)cc2c1 [Citrate salt of 4-9, 3-(5-{2-[(2-methoxyethyl)(methyl)amino]ethoxy}-1H-indol-2-yl)-2(1H)-quinolinone]
Solubility [2]: 19800 µg/mL
pH [2]: 3.33

CS(=O)(=O)N1CCN(Cc2ccc3[nH]c(-c4cc5ccccc5[nH]c4=O)cc3c2)CC1 [HBr salt of 1-11, 3-[5-(4-Methanesulfonyl-piperazin-1-ylmethyl)-1H-indol-2-yl]-1H-quinolin-2-one]
Solubility [1]: 200 µg/mL
pH [1]: 2.9

CS(=O)(=O)N1CCN(Cc2ccc3[nH]c(-c4cc5ccccc5[nH]c4=O)cc3c2)CC1 [HCl salt of 1-11, 3-[5-(4-Methanesulfonyl-piperazin-1-ylmethyl)-1H-indol-2-yl]-1H-quinolin-2-one]
Solubility [1]: 430 µg/mL
pH [1]: 2.3

CS(=O)(=O)N1CCN(Cc2ccc3[nH]c(-c4cc5ccccc5[nH]c4=O)cc3c2)CC1 [Maleate salt of 1-11, 3-[5-(4-Methanesulfonyl-piperazin-1-ylmethyl)-1H-indol-2-yl]-1H-quinolin-2-one]
Solubility [1]: 160 µg/mL
pH [1]: 2.5

COCCN(C)CCOc1ccc2[nH]c(-c3cc4ccccc4[nH]c3=O)cc2c1 [Mesylate 4-9B, 3-(5-{2-[(2-methoxyethyl)(methyl)amino]ethoxy}-1H-indol-2-yl)-2(1H)-quinolinone]
Solubility [2]: 22000 µg/mL

CS(=O)(=O)N1CCN(Cc2ccc3[nH]c(-c4cc5ccccc5[nH]c4=O)cc3c2)CC1 [Mesylate salt of 1-11, 3-[5-(4-Methanesulfonyl-piperazin-1-ylmethyl)-1H-indol-2-yl]-1H-quinolin-2-one]
Solubility [1]: 580 µg/mL
pH [1]: 2.3

CS(=O)(=O)N1CCN(Cc2ccc3[nH]c(-c4cc5ccccc5[nH]c4=O)cc3c2)CC1 [Salt 1-11, 3-[5-(4-Methanesulfonyl-piperazin-1-ylmethyl)-1H-indol-2-yl]-1H-quinolin-2-one]
Solubility ([3]; 0.05M Carbonate, pH final 10.09, room temperature): 79 µg/mL
Solubility ([3]; 0.05M Citrate, pH final 4.15, room temperature): 73 µg/mL
Solubility ([3]; 0.05M Citrate, pH final 5.07, room temperature): 70 µg/mL
Solubility ([3]; 0.05M Phosphate, pH final 7.93, room temperature): 74 µg/mL
Solubility ([3]; 0.05M Phosphate, pH final 8.86, room temperature): 73 µg/mL

CS(=O)(=O)N1CCN(Cc2ccc3[nH]c(-c4cc5ccccc5[nH]c4=O)cc3c2)CC1 [Salt 1-11B, 3-[5-(4-Methanesulfonyl-piperazin-1-ylmethyl)-1H-indol-2-yl]-1H-quinolin-2-one]
Solubility ([4]; acetonitrile, organic solvent or mixture): 30 µg/mL

CS(=O)(=O)N1CCN(Cc2ccc3[nH]c(-c4cc5ccccc5[nH]c4=O)cc3c2)CC1 [Salt 1-11D, 3-[5-(4-Methanesulfonyl-piperazin-1-ylmethyl)-1H-indol-2-yl]-1H-quinolin-2-one]
solubility at 7 days ([4]; aqueous ETOH, aqueous with cosolvent or surfactant or cyclodextrin): 4340 µg/mL
solubility at 7 days ([4]; aqueous IPA, aqueous with cosolvent or surfactant or cyclodextrin): 3990 µg/mL
solubility at 7 days ([4]; ethanol, organic solvent or mixture): 130 µg/mL
solubility at 7 days ([4]; isopropanol, organic solvent or mixture): 57 µg/mL
solubility at 7 days ([4]; water): 620 µg/mL

CS(=O)(=O)N1CCN(Cc2ccc3[nH]c(-c4cc5ccccc5[nH]c4=O)cc3c2)CC1 [Sulfate salt of 1-11, 3-[5-(4-Methanesulfonyl-piperazin-1-ylmethyl)-1H-indol-2-yl]-1H-quinolin-2-one]
Solubility [1]: 130 µg/mL
pH [1]: 1.5

COCCN(C)CCOc1ccc2[nH]c(-c3cc4ccccc4[nH]c3=O)cc2c1 [Sulfate salt of 4-9, 3-(5-{2-[(2-methoxyethyl)(methyl)amino]ethoxy}-1H-indol-2-yl)-2(1H)-quinolinone]
pH [2]: 1.40

COCCN(C)CCOc1ccc2[nH]c(-c3cc4ccccc4[nH]c3=O)cc2c1 [Tartrate salt of 4-9, 3-(5-{2-[(2-methoxyethyl)(methyl)amino]ethoxy}-1H-indol-2-yl)-2(1H)-quinolinone]
pH [2]: 3.23
